We go through eight compounds from patent publication US8916570B2 (The United States of America, as represented by the …, priority 2008, dated 2014).

Where a chain is given by its changes, count along the chain named. Like-named read-outs stand apart in the source and are kept apart here. Marks after values point to notes of the source that are not given here.

For one test, the target named is T1, rat A3 AR (Rattus norvegicus, UniProt P28647).
T1 sequence (P28647 1-320): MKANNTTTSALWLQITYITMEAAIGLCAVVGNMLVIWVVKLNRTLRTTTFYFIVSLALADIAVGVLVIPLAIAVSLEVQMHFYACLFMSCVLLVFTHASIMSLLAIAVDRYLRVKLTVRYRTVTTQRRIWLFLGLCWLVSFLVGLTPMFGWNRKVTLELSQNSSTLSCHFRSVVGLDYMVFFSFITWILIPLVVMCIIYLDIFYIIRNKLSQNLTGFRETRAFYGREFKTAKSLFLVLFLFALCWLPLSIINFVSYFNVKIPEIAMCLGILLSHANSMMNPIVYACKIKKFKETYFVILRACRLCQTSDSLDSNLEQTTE
Particulars: species R (rat); data from Tchilibon et al. / Lee et al.; cited from earlier work.

Test [1] concerns the target T2, hA1AR (Homo sapiens, UniProt P30542).
T2 construct: expressed in transfected cells; host or cells: CHO
T2 sequence (P30542 1-326): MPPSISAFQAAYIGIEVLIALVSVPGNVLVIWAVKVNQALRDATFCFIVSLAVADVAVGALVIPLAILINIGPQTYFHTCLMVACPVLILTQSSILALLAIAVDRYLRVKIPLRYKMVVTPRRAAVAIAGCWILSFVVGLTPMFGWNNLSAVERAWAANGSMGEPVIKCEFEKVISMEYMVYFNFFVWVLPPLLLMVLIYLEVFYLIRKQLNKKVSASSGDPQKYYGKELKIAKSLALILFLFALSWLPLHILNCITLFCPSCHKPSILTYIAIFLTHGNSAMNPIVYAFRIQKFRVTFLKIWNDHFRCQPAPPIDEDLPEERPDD
The settings on record: values from the literature (footnotes c, d); read-out: Affinity (Ki, nM) hA1; cited from earlier work.

Test [2] has as its target T3, hA2AAR (Homo sapiens, UniProt P29274).
T3 construct: expressed in transfected cells
The settings on record: cited from earlier work; for % inhibition hA2A: inhibition of radioligand binding at 10 μM, values from the literature.

The target of test [3] is T4, mA1AR (Mus musculus, UniProt Q60612).
T4 construct: expressed in transfected cells
T4 sequence (Q60612 1-326): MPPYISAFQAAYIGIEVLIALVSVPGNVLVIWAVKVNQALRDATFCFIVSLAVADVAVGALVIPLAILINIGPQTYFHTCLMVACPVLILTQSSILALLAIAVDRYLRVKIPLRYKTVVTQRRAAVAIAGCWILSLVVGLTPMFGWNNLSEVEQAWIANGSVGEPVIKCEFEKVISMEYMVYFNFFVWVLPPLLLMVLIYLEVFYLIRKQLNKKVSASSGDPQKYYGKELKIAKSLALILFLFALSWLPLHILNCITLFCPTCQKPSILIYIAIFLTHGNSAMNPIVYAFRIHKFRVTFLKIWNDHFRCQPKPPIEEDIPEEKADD
The settings on record: values from Melman et al.; read-out: Affinity (Ki, nM) mA1; cited from earlier work.

A further test concerns the target T5, mA2AAR (Mus musculus, UniProt Q60613).
T5 construct: expressed in transfected cells
The settings on record: values from Melman et al., cited from earlier work.

Test [4] deals with T6, mA3AR (Mus musculus, UniProt Q61618).
T6 construct: expressed in transfected cells
T6 sequence (Q61618 1-319): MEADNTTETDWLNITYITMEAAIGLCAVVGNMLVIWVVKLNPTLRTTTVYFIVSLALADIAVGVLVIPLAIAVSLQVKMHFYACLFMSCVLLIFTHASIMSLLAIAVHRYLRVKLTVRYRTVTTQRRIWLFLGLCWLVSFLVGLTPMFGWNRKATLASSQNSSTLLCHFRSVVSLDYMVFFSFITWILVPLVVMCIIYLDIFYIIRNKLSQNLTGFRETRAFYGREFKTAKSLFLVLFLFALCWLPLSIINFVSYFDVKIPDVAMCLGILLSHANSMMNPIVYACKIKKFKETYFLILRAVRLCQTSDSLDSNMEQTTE
The settings on record: values from Melman et al.; read-out: Affinity (Ki, nM) mA3; cited from earlier work.

In test [5] the target is T7, human A2A adenosine receptor (Homo sapiens, UniProt P29274). More on the design: expressed in transfected cells. Particulars: species H (human), cited from earlier work; for A2A % inhib.: percent inhibition at 10 μM, data from Tchilibon et al.
T7 sequence (P29274 whole entry): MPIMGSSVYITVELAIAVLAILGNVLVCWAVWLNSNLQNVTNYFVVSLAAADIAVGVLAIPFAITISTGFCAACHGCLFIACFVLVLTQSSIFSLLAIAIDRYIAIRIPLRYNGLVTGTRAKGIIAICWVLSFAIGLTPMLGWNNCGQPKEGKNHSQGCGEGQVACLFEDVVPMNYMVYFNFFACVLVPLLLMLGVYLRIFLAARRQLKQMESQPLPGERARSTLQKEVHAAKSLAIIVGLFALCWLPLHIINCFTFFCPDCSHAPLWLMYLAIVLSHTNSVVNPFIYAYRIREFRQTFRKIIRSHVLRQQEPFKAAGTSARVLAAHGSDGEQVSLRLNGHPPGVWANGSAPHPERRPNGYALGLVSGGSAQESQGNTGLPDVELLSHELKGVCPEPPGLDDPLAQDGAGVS
The target in test [6] is T8, human A1 adenosine receptor (Homo sapiens, UniProt P30542).
T8 sequence (P30542 1-326): T2 sequence (P30542 1-326)
Also on record: expressed in transfected cells; host or cells: CHO. Particulars: species H (human); data from Tchilibon et al. or Kim et al.; cited from earlier work.

Test [7] has as its target T9, mouse A1 adenosine receptor (Mus musculus, UniProt Q60612).
T9 sequence (Q60612 1-326): T4 sequence (Q60612 1-326)
Description: Competition radioligand binding, mouse A1 AR, HEK293 membranes (Table 1). Particulars: read-out: A1 Ki; species M (mouse); [125I]I-AB-MECA; mean ± SEM.

For test [8], the target named is T10, mouse A3 adenosine receptor (Mus musculus, UniProt Q61618).
T10 sequence (Q61618 1-319): T6 sequence (Q61618 1-319)
The test can be described thus: Competition radioligand binding, mouse A3 AR, HEK293 membranes (Table 1). Particulars: read-out: A3 Ki; species M (mouse); [125I]I-AB-MECA.

For test [9], the target named is mouse A2A adenosine receptor (Mus musculus, UniProt Q60613). Description: Competition radioligand binding, mouse A2A AR, HEK293 membranes (Table 1).
mouse A2A adenosine receptor, sequence (Q60613 whole entry): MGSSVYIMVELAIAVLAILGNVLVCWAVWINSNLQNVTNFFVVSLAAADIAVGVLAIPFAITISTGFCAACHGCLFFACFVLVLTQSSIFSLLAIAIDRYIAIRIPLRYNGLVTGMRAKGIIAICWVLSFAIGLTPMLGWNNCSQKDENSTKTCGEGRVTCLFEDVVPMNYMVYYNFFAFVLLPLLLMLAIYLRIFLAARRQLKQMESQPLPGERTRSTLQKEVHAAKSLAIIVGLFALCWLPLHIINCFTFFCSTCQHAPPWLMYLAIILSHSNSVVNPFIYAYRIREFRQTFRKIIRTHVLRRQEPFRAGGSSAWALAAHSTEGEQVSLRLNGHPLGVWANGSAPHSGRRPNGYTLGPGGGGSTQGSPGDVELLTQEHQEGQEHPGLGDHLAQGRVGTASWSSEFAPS
Another test concerns the target T11, rat A1 AR (Rattus norvegicus, UniProt P25099).
T11 sequence (P25099 1-326): T4 sequence (Q60612 1-326) with E151V, A155D, I157R, E316D, I319L, D325E
Particulars: species R (rat); data from Lee et al.; cited from earlier work.

The next test addresses rat A2A AR (Rattus norvegicus, UniProt P30543). The settings on record: species R (rat); data from Lee et al.; cited from earlier work.
The target of test [10] is T8, human A1 adenosine receptor. The test can be described thus: Radioligand binding, human A1 AR, CHO membranes (Table 1). Particulars: read-out: A1 Ki; species H (human).
Test [11] addresses T2, hA1AR. The test can be described thus: Binding at hA1AR, CHO membranes (Example 7). Particulars: read-out: % inhibition hA1.
Description: CHO cells stably expressing the recombinant hA1, hA3, and rA3Rs, and HEK-293 cells stably expressing the hA2AAR were cultured in Dulbecco's modified Eagle medium (DMEM) and F12 (1:1) supplemented with 10% fetal bovine serum, 100 units/mL penicillin, 100 μg/mL streptomycin, and 2 μmol/mL glutamine. In addition, 800 μg/mL geneticin was added to the A2A media, while 500 μg/mL hygromycin was added to the A1 and A3 media. After harvesting, cells were homogenized and suspended in PBS. Cells were then centrifuged at 240 g for 5 min, and the pellet was resuspended in 50 mM Tris-HCl buffer (pH 7.5) containing 10 mM MgCl2. The suspension was homogenized and was then ultra-centrifuged at 14,330 g for 30 min at 4° C. […] The protein concentration was measured using the BCA Protein Assay Kit from Pierce Biotechnology, Inc. (Rockford, Ill.).
Into each tube in the binding assay was added 50 μL of increasing concentrations of the test ligand in Tris-HCl buffer (50 mM, pH 7.5) containing 10 mM MgCl2, 50 μL of the appropriate agonist radioligand, and finally 100 μL of membrane suspension. […] For the A2AAR (20 μg/tube) the radioligand used was [^3H]53 (10 nM). […] Nonspecific binding was determined using a final concentration of 10 μM 51 diluted with the buffer. The mixtures were incubated at 25° C. for 60 min in a shaking water bath. Binding reactions were terminated by filtration through Brandel GF/B filters under a reduced pressure using a M-24 cell harvester (Brandel, Gaithersburg, Md.). Filters were washed three times with 3 mL of 50 mM ice-cold Tris-HCl buffer (pH 7.5). […] Filters for A3AR binding were counted using a Packard COBRA™ II γ-counter. The Ki values were determined using GraphPad Prism for all assays.
Test [12] deals with T3, hA2AAR. Description: Binding at hA2AAR, HEK-293 membranes (Example 7). Particulars: read-out: % inhibition hA2A. As to the method: After harvesting, cells were homogenized and suspended in PBS.
Nonspecific binding was determined using a final concentration of 10 μM 51 diluted with the buffer.

The target of the next test is T12, hA3AR (Homo sapiens, UniProt P0DMS8).
T12 construct: expressed in transfected cells; host or cells: CHO
T12 sequence (P0DMS8 1-318): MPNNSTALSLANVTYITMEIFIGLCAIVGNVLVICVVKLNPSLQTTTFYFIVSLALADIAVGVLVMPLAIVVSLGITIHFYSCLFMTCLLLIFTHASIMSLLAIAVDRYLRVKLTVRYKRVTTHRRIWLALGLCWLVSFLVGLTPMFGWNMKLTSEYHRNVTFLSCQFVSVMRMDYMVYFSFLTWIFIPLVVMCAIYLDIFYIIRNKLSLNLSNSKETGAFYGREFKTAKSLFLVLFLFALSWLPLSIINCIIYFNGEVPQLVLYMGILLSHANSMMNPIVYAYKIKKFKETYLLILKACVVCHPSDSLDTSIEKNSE
Description: Binding at hA3AR, CHO membranes (Example 7). The settings on record: read-out: Affinity (Ki, nM) hA3.

Test [13] concerns the target T4, mA1AR. Description: Competition binding at mA1AR, HEK293 membranes (Example 8). Particulars: percent in parentheses, concentration not given.
For test [14], the target named is T6, mA3AR. The test can be described thus: Competition binding at mA3AR, HEK293 membranes (Example 8). Particulars: read-out: Affinity (Ki, nM) mA3.
The target in test [15] is T7, human A2A adenosine receptor. The test can be described thus: Radioligand binding, human A2A AR (Table 1). Particulars: species H (human); percent inhibition at 10 μM.
A further test has as its target T13, human A3 receptor (Homo sapiens, UniProt P0DMS8).
T13 sequence (P0DMS8 1-318): T12 sequence (P0DMS8 1-318)
The test can be described thus: Binding assay at the human A3 receptor, CHO membranes (Example 4).

T3 sequence (P29274 whole entry): as the sequence (P29274 whole entry) above
T5 sequence (Q60613 whole entry): as the sequence (Q60613 whole entry) above
rat A2A AR, sequence (P30543 whole entry): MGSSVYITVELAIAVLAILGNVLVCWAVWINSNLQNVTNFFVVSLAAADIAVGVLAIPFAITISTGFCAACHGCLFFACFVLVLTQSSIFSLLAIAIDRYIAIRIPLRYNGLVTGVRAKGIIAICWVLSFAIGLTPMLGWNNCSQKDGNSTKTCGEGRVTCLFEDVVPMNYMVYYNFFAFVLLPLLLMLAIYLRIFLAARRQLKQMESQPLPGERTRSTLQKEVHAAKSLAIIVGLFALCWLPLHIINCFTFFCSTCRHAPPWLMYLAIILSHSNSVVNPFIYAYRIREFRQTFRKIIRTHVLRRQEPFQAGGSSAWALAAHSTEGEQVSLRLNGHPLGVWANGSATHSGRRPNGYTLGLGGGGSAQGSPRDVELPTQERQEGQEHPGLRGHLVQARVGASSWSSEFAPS
Description for human A3 receptor: Cell culture and membrane preparation: CHO (Chinese hamster ovary) cells expressing the recombinant human A3AR were cultured in DMEM (Dulbecco's modified Eagle's medium) supplemented with 10% fetal bovine serum, 100 units/mL penicillin, 100 μg/mL streptomycin, 2 μmol/mL glutamine and 800 μg/mL geneticin. The CHO cells expressing rat A3ARs were cultured in DMEM and F12 (1:1). Cells were harvested by trypsinization. After homogenization and suspension, cell membranes were centrifuged at 500 g for 10 min, and the pellet was re-suspended in 50 mM Tris.HCl buffer (pH 8.0) containing 10 mM MgCl2, 1 mM EDTA and 0.1 mg/mL CHAPS (3[(3-cholamidopropyl)dimethylammonio]-propanesulfonic acid). […] The protein concentration was measured using the Bradford assay.
The mixtures were incubated at 37° C. for 60 min. Binding reactions were terminated by filtration through Whatman GF/B filters under reduced pressure using a MT-24 cell harvester (Brandell, Gaithersburgh, Md., USA). Filters were washed three times with 9 mL ice-cold buffer. Radioactivity was determined in a Beckman 5500B γ-counter.

For orientation: Ki means the equilibrium dissociation constant of an inhibitor or competing ligand from its target. With `CNC(=O)[C@@]12C[C@@H]1[C@@H](n1cnc3c(NCc4cccc(Cl)c4)nc(Cl)nc31)[C@H](O)[C@@H]2O` [Compound 13], the inhibition constant Ki at rat A3 AR was 1 nM; on hA1AR [1], 260 ± 60 nM; at hA2AAR [2] (values from the literature (footnotes c, d), read-out: Affinity (Ki, nM) hA2A), 2300 ± 100 nM; on mA1AR [3], 15.3 ± 5.8 nM; on mA2AAR (read-out: Affinity (Ki, nM) mA2A) it was 10400 nM; at mA3AR [4], 1.49 ± 0.46 nM. In addition, the Ki in test [5] (data from Tchilibon et al. or Kim et al.) was 2300 ± 100 nM; in test [6], 260 ± 60 nM; in [7], 15.3 ± 5.8 nM; in test [8] it was 1.49 ± 0.46 nM; in test [9] (read-out: A2A Ki, species M (mouse), [3H]CGS21680), 10400 ± 1700 nM.
As for `CNC(=O)[C@@]12C[C@@H]1[C@@H](n1cnc3c(NC)nc(Cl)nc31)[C@H](O)[C@@H]2O` [Compound 12], the Ki on rat A1 AR is 805 nM; at rat A2A AR, greater than 10000 nM; on rat A3 AR it was 160 ± 30 nM; at hA1AR [1] it was 2100 ± 1700 nM; on mA1AR [3], 55.3 ± 6 nM; on mA3AR [4], 49 ± 3.9 nM. Also, the values for the Ki in test [10], in test [7] and in test [8] were 2010 ± 1700 nM, 55.3 ± 6 nM and 49 ± 3.9 nM, respectively. In addition, the “% inhibition hA2A” value on hA2AAR [2] is given as “(6%)”. Besides, in [5], the A2A % inhib. result is “(6%)^d,f”.
As for `CNC(=O)C12CC1C(n1cnc3c(NCc4cccc(C#CCO)c4)nc(Cl)nc31)C(O)C2O` (centres unmarked) [Compound 16], the A2A % inhib. entry in test [5] is reported as “(56%)^f”. Also, in test [9] (read-out: A2A % inhib.), the inhibition at 100 µM is 11%.
As to `CNC(=O)[C@@]12C[C@@H]1[C@@H](n1cnc3c(NCc4cccc(Cl)c4)nc(C#Cc4ccc(N)cc4)nc31)[C@H](O)[C@@H]2O` [Compound 332a, (1S,2R,3S,4R,5S)-4-(2-((4-Aminophenyl)ethynyl)-6-(3-chlorobenzylamino)-9H-purin-9-yl)-2,3-dihydroxy-N-methylbicyclo[3.1.0]hexane-1-carboxamide], the inhibition at 10 µM at hA1AR [11] was 2%; on hA2AAR [12], 44%. In addition, the inhibition constant Ki turned out to be 2.27 ± 0.7 nM at hA3AR and 17 nM on mA3AR [14]. Further, the “% inhibition mA1” value at mA1AR [13] is on record as “(93%)”.
`CCCC#Cc1nc(NCc2cccc(Cl)c2)c2ncn([C@@H]3[C@H](O)[C@H](O)[C@]4(C(=O)NC)C[C@H]34)c2n1` [Compound 5, (1′S,2′R,3′S,4′S,5′S)-4′-[6-(3-Chlorobenzylamino)-2-(1-pentynyl)-9-yl]-2′,3′-dihydroxybicyclo[3.1.0]hexane-1′-carboxylic acid N-methylamide]: at hA2AAR [2], the “% inhibition hA2A” value was “(80%)”. For the same compound, the “% inhibition mA2A” value at mA2AAR (concentration not defined (mark ^1)) is “(42%)^1”. The A2A % inhib. entry is on record as “(80%)^f” in [15] and “(42%)^i” in test [9] (species M (mouse), percent inhibition at 100 μM).
For the compound `O[C@@H]1[C@H](O)[C@@H]2C[C@@H]2[C@H]1n1cnc2c(Nc3cccc4ccccc34)nc(Cl)nc21` [Compound 110b, (1′R,2′R,3′S, 4′R,5′S)-4′-[2-Chloro-6-(1-naphthylamino)purine]-2′,3′-O-dihydroxybicyclo[3.1.0]hexane], the “binding to the A3AR (in words)” value on human A3 receptor is listed as “nanomolar binding affinity”.
As for `CNC(=O)[C@@]12C[C@@H]1[C@@H](n1cnc3c(NC)nc(C#Cc4ccc(F)cc4)nc31)[C@H](O)[C@@H]2O` [Compound 313, (1S,2R,3S,4R,5S)-4-(2-((4-Fluorophenyl)ethynyl)-6-(methylamino)-9H-purin-9-yl)-2,3-dihydroxy-N-methylbicyclo[3.1.0]hexane-1-carboxamide], the inhibition at 10 µM at hA1AR [11] turned out to be 27%; at hA2AAR [12], 19%. Besides, the Ki at hA3AR stood at 0.53 ± 0.09 nM; at mA3AR [14], 66 nM. Further, the “% inhibition mA1” value at mA1AR [13] is reported as “(25%)”.
The matching figures for `CNC(=O)[C@@]12C[C@@H]1[C@@H](n1cnc3c(NCc4cccc(Cl)c4)nc(C#Cc4ccccc4Cl)nc31)[C@H](O)[C@@H]2O` [Compound 329, (1S,2R,3S,4R,5S)-4-(6-(3-Chlorobenzylamino)-2-((2-chlorophenyl)ethynyl)-9H-purin-9-yl)-2,3-dihydroxy-N-methylbicyclo[3.1.0]hexane-1-carboxamide]: 20%, 52%, 1.92 ± 0.57 nM, 7.5 nM and “(36%)”.
